Experimental data reported in patent US20020111305A1, “Antiviral peptides” (priority 1998, published 2002).
Where no end group is shown, it is not given here.

Key:
MT-2 cells = assay: Cytotoxicity seen in the HIV-1 neutralization assay; format: cell-based; details: 800 μg/ml
Description: (§1) A neutralization assay was performed on HIV-1 III-b as substantially described by Groenink M. et al., J. Virol 69, 523-527 (1995). In short, this assay comes down to the virus-neutralizing capacity of the different peptides being tested with an inoculum of 457 TCID50HIV per ml per neutralization, which is incubated at 37° C. for two hours with a twofold dilution series of the peptide for testing (maximum 800 μg/ml final concentration). The incubations are performed in a 5 mM phosphate buffer. On day 7, 14 and 21 the neutralization is assessed on the basis of the detected cytopathic effect (syncytia-forming) on MT-2 cells.

[1] = tested on: Herpes Simplex Virus (HSV); assay: Antiviral activity against Herpes Simplex Virus (TCID50 on Vero-cells after pre-incubation with peptide); format: cell-based
Description: In test phials 10 μl HSV (Department of Virology Academisch Ziekenhuis Leiden (Leiden University Hospital), lab strain 96-6700 P (TCID50 10^5-10^6), was supplemented with peptide and NaPB to 200 μl. For the positive control the peptide was replaced by a human neutrophil defensin pool (HNP1-3). The test phials were subsequently incubated at 37° C. for 3 hours. Tenfold dilutions were then made in Dulbecco's Modified Eagles Medium (DMEM) with 2% foetal calf serum (FSCi). Diverse peptides, synthesized in identical manner, were used as negative control in the experiments.
Vero-cells were isolated using detachment buffer (0.25% trypsin and 0.03% EDTA in PBS), washed and brought to a concentration of 2×10^5 cells per ml DMEM +2% FCSi. In 96 wells-plates (Nunclon) 100 μl cell suspension (2×10^4 cells) was added per well. Acyclovir (ACV) was added as control to several wells about two hours (t=−2 hours) before infection. 50 μl of a dilution was added to each well at the point in time t=0.
After 3 days incubation in a CO2-stove of 37° C. the cytopathological effect (cpe) was scored by counting under the microscope and the TCID50 (tissue culture […] dose) was determined using the Reed & Muench method (Dulbecco & Ginsberg, “Virology”, JB Lippincott Co., Philadelphia, 2nd edition, 1988).
The effectiveness of peptide 10 in time was then determined. […]

HIV-1 III-b = assay: HIV-1 neutralization assay (syncytia-forming on MT-2 cells); format: cell-based, Human Immuno-deficiency Virus Type 1; details: day 21; 457 TCID50 HIV per ml; 2 hours at 37° C.; maximum 800 μg/ml
Description: as §1

LLLFLLKKRKKRKY [peptide 11, LLLFLLKKRKKRKY]
cytotoxicity at the highest concentration (MT-2 cells): # peptide 11 was cytoxic at the highest concentration (800 μg/ml).

KRLFKKLLFSLRKY [peptide 10]
activity against HSV compared with HNP, dilution series (FIG. 3) ([1]; in high concentrations): more effective than HNP
effectiveness against HSV compared with acyclovir and HNP (FIG. 1) ([1]; peptide at sufficiently high concentrations (50 μg/ml), 3 hours at 37° C.): at least as effective as acyclovir and HNP
neutralizing capacity: μg/ml necessary for neutralization (HIV-1 III-b): 200 µg/mL

KRLFKELLFSLRKY [peptide 4]
neutralizing capacity: μg/ml necessary for neutralization (HIV-1 III-b): 200 µg/mL

DSHAKRHHGYKRKFHEKHHSHRGY [his 5, reference compound]
neutralizing capacity: μg/ml necessary for neutralization (HIV-1 III-b): no neutralization

KRKFHEKHHSHRGY [dh-5, the C-terminal part of histatin 5, reference compound]
neutralizing capacity: μg/ml necessary for neutralization (HIV-1 III-b): no neutralisation
